Patent US11026943B2, “Aminoquinoline derivatives and uses thereof” (UNIVERSITY OF DELHI, priority 2012, dated 2021)
Where two headings read alike, the source gives them in different places.

Columns and labels:
[1] = system: CQ-sensitive (D6 clone) strain of P. falciparum; experiment: In vitro antimalarial activity, CQ-sensitive strain; format: cell-based, Plasmodium falciparum; conditions: for IC50: Plasmodium falciparum; for P. falciparum (D6 Clone) S.I.: selectivity index = IC50 cytotoxicity to Vero cells / IC50 antimalarial
Text: (§1) Med. Chem. 2005, 13, 4458; Khan, I. A. Lipids 2004, 37, 169].

[2] = system: LLC-PK-1 cells; experiment: In vitro cytotoxicity to mammalian cells, LLC-PK-1; format: cell-based; conditions: Sus scrofa, LLC-PK1
Text: as §1

[3] = system: CQ-resistant (W2 clone) strain of P. falciparum; experiment: In vitro antimalarial activity, CQ-resistant strain; format: cell-based, Plasmodium falciparum; conditions: for IC50: Plasmodium falciparum; for P. falciparum (W2 Clone) S.I.: selectivity index = IC50 cytotoxicity to Vero cells / IC50 antimalarial
Text: as §1

[4] = system: VERO cells; experiment: In vitro cytotoxicity to mammalian cells, VERO; format: cell-based; conditions: Chlorocebus sabaeus, Vero; in vitro cytotoxicity to mammalian cells
Text: as §1

[5] = system: HepG2 cells; experiment: In vitro cytotoxicity to mammalian cells, HepG2; format: cell-based; conditions: Homo sapiens
Text: as §1

[6] = system: parasitemia; experiment: In-vivo antimalarial activity in mice
[7] = Solubility (solvent listed in compound tables); format: physicochemical
[8] = CQ-sensitive D6 clone, read-out: P. falciparum (D6 Clone) IC50
[9] = CQ-resistant W2 clone, read-out: P. falciparum (W2 Clone) IC50
[10] = mice, PO, 100 mg/kg × 3 days post-infection
[11] = solvents listed for the compound

SMILES: Cc1cc(Cl)nc(NCCCCNc2ccnc3cc(Cl)ccc23)n1 [11c]
- IC50 [1, 8]: 0.196 µM
- P. falciparum (D6 Clone) S.I. [1]: (>306)
- IC50 [2]: > 60 µM
- IC50 [3, 9]: 0.664 µM
- P. falciparum (W2 Clone) S.I. [3]: (>90)
- IC50 [4]: > 60 µM
- IC50 [5]: 39.8 µM

SMILES: CCN(CC)CCCC(C)Nc1ccnc2cc(Cl)ccc12 (centres unmarked) [Chloroquine, chloroquine, reference compound]
- IC50 ([1]; D6, read-out: P. falciparum (D6 Clone) IC50 (μM)): 0.048 µM
- P. falciparum (D6 Clone) S.I. [1]: 1250
- parasitemia suppression ([6]; day 5, 100 mg/kg for 3 days post infection, standard drug): 100%
- Cure (number of mice without parasitemia till day 28 post-infection) [6, 10]: 0/5
- MST (mean survival time) [6, 10]: 28 days
- % Parasitemia suppression Day 5 ([6]; mice, PO, 100 mg/kg × 3 days post-infection, day 5): 100.00%
- % Parasitemia suppression Day 7 ([6]; mice, PO, 100 mg/kg × 3 days post-infection, day 7): 100.00%
- Survival (animals that survived day 28/total animals in group) ([6]; mice, PO, 100 mg/kg × 3 days post-infection, day 28): 5/5
- Day of Death ([6]; mice, PO, 100 mg/kg × 3 days post-infection, per animal): 28/28/28/28/28
- IC50 ([3]; W2, read-out: P. falciparum (W2 Clone) IC50 (μM)): 0.43 µM
- P. falciparum (W2 Clone) S.I. [3]: 140

SMILES: COc1cccc2c1C(=O)c1c(O)c3c(c(O)c1C2=O)C[C@@](O)(C(=O)CO)C[C@@H]3O[C@H]1C[C@H](N)[C@H](O)[C@H](C)O1 [Doxorubicin]
- IC50 [2]: 1 µM
- IC50 [4]: 8.2 µM
- IC50 [5]: < 1 µM

SMILES: C[C@@H]1CC[C@H]2[C@@H](C)C(=O)O[C@@H]3O[C@@]4(C)CC[C@@H]1[C@]32OO4 [Artemisinine, reference compound]
- IC50 [1, 8]: 0.012 µM
- P. falciparum (D6 Clone) S.I. [1]: 5000
- IC50 [3, 9]: 0.012 µM
- P. falciparum (W2 Clone) S.I. [3]: 5000

SMILES: COc1cc(Nc2nc(NCCCNc3c4ccc(Cl)cc4nc4ccc(OC)cc34)nc(N3CCN(c4ccccc4)CC3)n2)cc(OC)c1 [ATH 171]
- SOLUBILITY ([7]; solvent named, Table 3): DMSO

SMILES: Clc1ccc2c(NCCNc3nccc(N4CCOCC4)n3)ccnc2c1 [SM 733]
- SOLUBILITY ([7]; solvent named, Table 3): DMSO

SMILES: Fc1ccc(Nc2ccnc(NCCNc3ccnc4cc(Cl)ccc34)n2)cc1 [DKG817]
- SOLUBILITY ([7]; solvent named, Table 4): DMSO

SMILES: CCc1ccc(Nc2nc(NCCCCNc3ccnc4cc(Cl)ccc34)nc(N3CCOCC3)n2)cc1 [SM 358]
- SOLUBILITY ([7]; solvent named, Table 3): DMSO

SMILES: COc1cc(Nc2nc(NCCNCc3c4ccc(Cl)cc4nc4ccc(OC)cc34)nc(NC3CCCCC3)n2)cc(OC)c1 [ATH 194]
- SOLUBILITY ([7]; solvent named, Table 3): DMSO

SMILES: COc1ccc(Nc2cc(C)nc(NCCCNc3ccnc4cc(Cl)ccc34)n2)cc1 [DKG838]
- SOLUBILITY ([7]; solvent named, Table 4): DMSO

SMILES: COc1ccc(Nc2nc(NCCNc3c4ccc(Cl)cc4nc4ccc(OC)cc34)nc(N3CCOCC3)n2)cc1 [ATH 182]
- SOLUBILITY ([7]; solvent named, Table 3): DMSO

SMILES: Cc1cc(NCCCCCCNc2ccnc3cc(Cl)ccc23)nc(Cl)n1 [SM 504A]
- SOLUBILITY ([7]; solvent named, Table 3): DMSO

SMILES: Clc1ccc2c(NCCNc3cc(Cl)nc(Cl)n3)ccnc2c1 [SM 695A]
- SOLUBILITY ([7]; solvent named, Table 3): DMSO

SMILES: Cc1cc(Cl)nc(NCCNc2ccnc3cc(Cl)ccc23)n1 [SM 488B]
- SOLUBILITY ([7]; solvent named, Table 3): DMSO

SMILES: Fc1ccc(Nc2nc(NCCCCNc3ccnc4cc(Cl)ccc34)nc(N3CCOCC3)n2)cc1 [SM 357]
- SOLUBILITY ([7]; solvent named, Table 3): DMSO

SMILES: Cc1cc(NCCCNc2ccnc3cc(Cl)ccc23)nc(N2CCN(C)CC2)n1 [SM 494]
- SOLUBILITY ([7]; solvent named, Table 3): DMSO

SMILES: Cc1cc(NCCNc2ccnc3cc(Cl)ccc23)nc(N2CCN(C)CC2)n1 [SM 491]
- SOLUBILITY ([7]; solvent named, Table 3): DMSO

SMILES: Cc1ccccc1Nc1nc(Nc2ccccc2C)nc(NC(C)CNc2ccnc3cc(Cl)ccc23)n1 (centres unmarked) [SM 146]
- SOLUBILITY ([7]; solvent named, Table 3): DMSO

SMILES: OCCNc1nccc(N2CCN(c3ccnc4cc(Cl)ccc34)CC2)n1 [ATH 254]
- SOLUBILITY ([7]; solvent named, Table 3): DMSO

SMILES: OCCCNc1nc(NCCNc2ccnc3cc(Cl)ccc23)nc(N2CCOCC2)n1 [SM 350]
- SOLUBILITY ([7]; solvent named, Table 3): DMSO

SMILES: COc1cc(Nc2nc(NCCNc3c4ccc(Cl)cc4nc4ccc(OC)cc34)nc(NC3CCCCC3)n2)cc(OC)c1 [ATH 192]
- SOLUBILITY ([7]; solvent named, Table 3): DMSO

SMILES: OCCCCCCNc1nccc(NCCCCNc2ccnc3cc(Cl)ccc23)n1 [MT1-163]
- SOLUBILITY [7, 11]: MeOH, DMSO

SMILES: OCCCCNc1nccc(NCCCNc2ccnc3cc(Cl)ccc23)n1 [MT1-122]
- SOLUBILITY [7, 11]: MeOH, DMSO

SMILES: Cc1cc(Nc2ccc(F)cc2)nc(NCCCNc2ccnc3cc(Cl)ccc23)n1 [DKG854]
- SOLUBILITY ([7]; solvent named, Table 4): DMSO

SMILES: Clc1ccc2c(NCCNc3nc(N4CCOCC4)nc(N4CCOCC4)n3)ccnc2c1 [SM 142]
- SOLUBILITY ([7]; solvent named, Table 3): DMSO

SMILES: OCCNc1nccc(NCCCNc2ccnc3cc(Cl)ccc23)n1 [MT1-127]
- SOLUBILITY [7, 11]: MeOH, DMSO

SMILES: COc1ccc(Nc2ccnc(N3CCN(c4ccnc5cc(Cl)ccc45)CC3)n2)cc1 [ATH 220]
- SOLUBILITY ([7]; solvent named, Table 3): DMSO

SMILES: Cc1cc(NCCNc2ccnc3cc(Cl)ccc23)nc(N2CCOCC2)n1 [SM 489]
- SOLUBILITY ([7]; solvent named, Table 3): DMSO

SMILES: Cc1ccc(Nc2cc(C)nc(NCCCNc3ccnc4cc(Cl)ccc34)n2)cc1 [DKG858]
- SOLUBILITY ([7]; solvent named, Table 4): DMSO

SMILES: Cc1cc(Cl)nc(NCCCNc2ccnc3cc(Cl)ccc23)n1 [SM 484B]
- SOLUBILITY ([7]; solvent named, Table 3): DMSO

SMILES: Clc1ccc2c(NCCCNc3ccnc(Cl)n3)ccnc2c1 [SM 719A]
- SOLUBILITY ([7]; solvent named, Table 3): DMSO

SMILES: COc1ccc(Nc2ccnc(NCCCNc3ccnc4cc(Cl)ccc34)n2)cc1 [DKG826]
- SOLUBILITY ([7]; solvent named, Table 4): DMSO

SMILES: COc1ccc(Nc2nc(NCCNCc3c4ccc(Cl)cc4nc4ccc(OC)cc34)nc(N(C)C)n2)cc1 [ATH 196]
- SOLUBILITY ([7]; solvent named, Table 3): DMSO

SMILES: Clc1ccc2c(NCCCCNc3nccc(Nc4ccccc4)n3)ccnc2c1 [DKG823]
- SOLUBILITY ([7]; solvent named, Table 4): DMSO

SMILES: Cc1cc(Nc2ccc(Cl)cc2)nc(NCCCCNc2ccnc3cc(Cl)ccc23)n1 [DKG847]
- SOLUBILITY ([7]; solvent named, Table 4): DMSO

SMILES: OCCCNc1nccc(NCCCCNc2ccnc3cc(Cl)ccc23)n1 [MT1-157]
- SOLUBILITY [7, 11]: MeOH, DMSO

SMILES: OCCNc1nc(NCCCNc2ccnc3cc(Cl)ccc23)nc(N2CCOCC2)n1 [SM 353]
- SOLUBILITY ([7]; solvent named, Table 3): DMSO

SMILES: Cc1cc(NCCCNc2ccnc3cc(Cl)ccc23)nc(NCCCCO)n1 [MT1-147]
- SOLUBILITY [7, 11]: MeOH, DMSO

SMILES: COc1ccc2nc3cc(Cl)ccc3c(CNCCNc3nc(N4CCN(c5ccccc5)CC4)nc(N4CCN(c5ccccc5)CC4)n3)c2c1 [ATH 179]
- SOLUBILITY ([7]; solvent named, Table 3): DMSO

SMILES: Cc1cc(Cl)nc(NCCCCCCNc2ccnc3cc(Cl)ccc23)n1 [SM 504B]
- SOLUBILITY ([7]; solvent named, Table 3): DMSO

SMILES: CCc1ccc(Nc2nc(NCCCNc3ccnc4cc(Cl)ccc34)nc(N3CCOCC3)n2)cc1 [SM 340]
- SOLUBILITY ([7]; solvent named, Table 3): DMSO

SMILES: OCCCNc1nc(NCCCCNc2ccnc3cc(Cl)ccc23)nc(N2CCOCC2)n1 [SM 349]
- SOLUBILITY ([7]; solvent named, Table 3): DMSO

SMILES: Cc1cc(NCCCCNc2ccnc3cc(Cl)ccc23)nc(NCCO)n1 [MT1-192]
- SOLUBILITY [7, 11]: MeOH, DMSO

SMILES: Clc1ccc2c(NCCNc3nccc(Cl)n3)ccnc2c1 [SM 728B]
- SOLUBILITY ([7]; solvent named, Table 3): DMSO

SMILES: Clc1ccc2c(NCCCNc3nc(Cl)cc(N4CCOCC4)n3)ccnc2c1 [SM 716]
- SOLUBILITY ([7]; solvent named, Table 3): DMSO

SMILES: Cc1cc(Nc2ccccc2)nc(NCCCNc2ccnc3cc(Cl)ccc23)n1 [DKG834]
- SOLUBILITY ([7]; solvent named, Table 4): DMSO

SMILES: CN1CCN(c2nc(Cl)cc(NCCNc3ccnc4cc(Cl)ccc34)n2)CC1 [SM 701]
- SOLUBILITY ([7]; solvent named, Table 3): DMSO

SMILES: CN1CCN(c2cc(Cl)nc(NCCCNc3ccnc4cc(Cl)ccc34)n2)CC1 [SM 717]
- SOLUBILITY ([7]; solvent named, Table 3): DMSO

SMILES: Clc1ccc2c(NCCNc3nc(Nc4ccccc4)nc(N4CCOCC4)n3)ccnc2c1 [SM 336]
- SOLUBILITY ([7]; solvent named, Table 3): DMSO

SMILES: CCN1CCN(c2cc(Cl)nc(NCCCNc3ccnc4cc(Cl)ccc34)n2)CC1 [SM 718]
- SOLUBILITY ([7]; solvent named, Table 3): DMSO

SMILES: OCCCCCNc1nccc(NCCCNc2ccnc3cc(Cl)ccc23)n1 [MT1-128]
- SOLUBILITY [7, 11]: MeOH, DMSO

SMILES: COc1ccc(Nc2nc(NCCCNc3c4ccc(Cl)cc4nc4ccc(OC)cc34)nc(N(C)C)n2)cc1 [ATH 166]
- SOLUBILITY ([7]; solvent named, Table 3): DMSO

SMILES: Fc1ccc(Nc2nc(NCCNc3ccnc4cc(Cl)ccc34)nc(N3CCOCC3)n2)cc1 [SM 334]
- SOLUBILITY ([7]; solvent named, Table 3): DMSO

SMILES: COc1ccc(Nc2nc(NCCCNc3c4ccc(Cl)cc4nc4ccc(OC)cc34)nc(N3CCN(c4ccccc4)CC3)n2)cc1 [ATH 198]
- SOLUBILITY ([7]; solvent named, Table 3): DMSO

SMILES: Cc1ccc(Nc2ccnc(NCCCNc3ccnc4cc(Cl)ccc34)n2)cc1 [DKG806]
- SOLUBILITY ([7]; solvent named, Table 4): DMSO

SMILES: Cc1cc(NCCCCNc2ccnc3cc(Cl)ccc23)nc(NCCCCCO)n1 [MT1-195]
- SOLUBILITY [7, 11]: MeOH, DMSO

SMILES: Clc1ccc(Nc2ccnc(NCCCNc3ccnc4cc(Cl)ccc34)n2)cc1 [DKG814]
- SOLUBILITY ([7]; solvent named, Table 4): DMSO

SMILES: CCc1ccc(Nc2nc(NCCNc3ccnc4cc(Cl)ccc34)nc(N3CCOCC3)n2)cc1 [SM 335]
- SOLUBILITY ([7]; solvent named, Table 3): DMSO

SMILES: COc1cc(Nc2ccnc(N3CCN(c4ccnc5cc(Cl)ccc45)CC3)n2)cc(OC)c1 [ATH 214]
- SOLUBILITY ([7]; solvent named, Table 3): DMSO
